Test results: the supplement of paper PMC6045584
± gives the standard deviation of the averaged measurements.

How the values were obtained:
CELECOXIB [1] = compound: T1, Cc1ccc(-c2cc(C(F)(F)F)nn2-c2ccc(S(N)(=O)=O)cc2)cc1 [CELECOXIB]; experiment: surviving fraction relative to DMSO-only wells; higher = less growth inhibition; conditions: exposure time: 5 days
How it was run: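 Log-phase tumour cell lines, 250–500 cells per well in 384-well plates, received inhibitors at 0.5, 1, 5, 10, 50, 100, 500 and 1000 nM continuously for five days, starting 24 hours after seeding. Viability was quantified with CellTiter-Glo luminescence and normalised to the median of DMSO-only wells to give surviving fraction. Three screens were run per line, and a line stayed in only with replicate Pearson r >0.7 and median Z' >0.3.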

[2] = compound: CC(=O)NCC(=O)N1[C@@H]2CC[C@H]1c1ccc(Nc3ncc(C(F)(F)F)c(NC4CCC4)n3)cc12; experiment: area under dose-response curve of surviving fraction (unscaled, Aref=0) (surviving fraction x log10(nM)); higher = more resistant; conditions: exposure time: 5 days; dose range 0.5-1000 nM
How it was run: (§1)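 Tumour cell lines in 384-well plates were exposed to eight inhibitor concentrations, from 0.5 to 1000 nM, for five days, and viability was read by CellTiter-Glo luminescence in three screens per line. Signals were normalised to DMSO-only wells, and 3-parameter logistic regression in the drc R package fitted dose-response survival curves to the surviving fractions. Area under the curve is given as the unscaled activity area. That area is taken over log10 dose with Aref = 0.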

PACLITAXEL = compound: CC(=O)O[C@H]1C(=O)[C@@]2(C)[C@H]([C@H](OC(=O)c3ccccc3)[C@]3(O)C[C@H](OC(=O)[C@H](O)[C@@H](NC(=O)c4ccccc4)c4ccccc4)C(C)=C1C3(C)C)[C@]1(OC(C)=O)CO[C@@H]1C[C@@H]2O [PACLITAXEL]; experiment: as above; conditions: exposure time: 5 days; dose range 0.5-1000 nM
How it was run: as §1

CAMPTOTHECIN = compound: CC[C@@]1(O)C(=O)OCc2c1cc1n(c2=O)Cc2cc3ccccc3nc2-1 [CAMPTOTHECIN]; experiment: as above; conditions: exposure time: 5 days; dose range 0.5-1000 nM
How it was run: as §1

YM155 = compound: COCC[n+]1c2c(n(Cc3cnccn3)c1C)C(=O)c1ccccc1C2=O [YM155]; experiment: as above; conditions: exposure time: 5 days; dose range 0.5-1000 nM
How it was run: as §1

GEFITINIB = compound: COc1cc2ncnc(Nc3ccc(F)c(Cl)c3)c2cc1OCCCN1CCOCC1 [GEFITINIB]; experiment: as above; conditions: exposure time: 5 days; dose range 0.5-1000 nM
How it was run: as §1

OSI-906 = compound: C[C@]1(O)C[C@@H](c2nc(-c3ccc4ccc(-c5ccccc5)nc4c3)c3c(N)nccn32)C1 [OSI-906]; experiment: as above; conditions: exposure time: 5 days; dose range 0.5-1000 nM
How it was run: as §1

CELECOXIB [3] = compound: T1, CELECOXIB; experiment: as above; conditions: exposure time: 5 days; dose range 0.5-1000 nM
How it was run: as §1

CARBOPLATIN = compound: O=C(O)C1(C(=O)O)CCC1.[NH2-].[NH2-].[Pt+2] [CARBOPLATIN]; experiment: as above; conditions: exposure time: 5 days; dose range 0.5-1000 nM
How it was run: as §1

[4] = compound: CC(=O)c1c(C)c2cnc(Nc3ccc(N4CCNCC4)cn3)nc2n(C2CCCC2)c1=O; experiment: as above; conditions: exposure time: 5 days; dose range 0.5-1000 nM
How it was run: as §1

Row | Test System | surviving fraction (CELECOXIB [1]; 0.5 nM) | surviving fraction (CELECOXIB [1]; 1 nM) | surviving fraction (CELECOXIB [1]; 5 nM) | surviving fraction (CELECOXIB [1]; 10 nM) | surviving fraction (CELECOXIB [1]; 50 nM) | surviving fraction (CELECOXIB [1]; 100 nM) | surviving fraction (CELECOXIB [1]; 500 nM) | surviving fraction (CELECOXIB [1]; 1000 nM) | area under dose-response curve [2] | area under dose-response curve (PACLITAXEL) | area under dose-response curve (CAMPTOTHECIN) | area under dose-response curve (YM155) | area under dose-response curve (GEFITINIB) | area under dose-response curve (OSI-906) | area under dose-response curve (CELECOXIB [3]) | area under dose-response curve (CARBOPLATIN) | area under dose-response curve [4]
1 | JURKAT HAEMATOPOIETIC AND LYMPHOID TISSUE | 1.03 ± 0.036 | 1.05 ± 0.032 | 1.03 ± 0.017 | 1.05 ± 0.029 | 0.986 ± 0.034 | 1 ± 0.03 | 1.03 ± 0.013 | 0.975 ± 0.035 | 2.31 | 0.401 | 0.802 | 1.3 | 3.46 | 3.25 | 3.37 | 3.39 | –
2 | VCAP PROSTATE | 1.07 ± 0.068 | 1.08 ± 0.17 | 1.06 ± 0.067 | 1.14 ± 0.1 | 1.13 ± 0.018 | 1.12 ± 0.072 | 1.07 ± 0.029 | 1.05 ± 0.11 | 2.52 | 0.687 | 1.76 | 0.945 | 3.75 | 2.78 | – | 3.55 | –
3 | HCC78 LUNG | 0.815 ± 0.2 | 0.894 ± 0.038 | 0.89 ± 0.28 | 1.05 ± 0.18 | 0.886 ± 0.14 | 1.05 ± 0.082 | 0.973 ± 0.09 | 0.801 ± 0.028 | 2.33 | 0.585 | 0.338 | 0.851 | – | 2.75 | 3.06 | 3.35 | –
4 | HS57T BREAST | 1.028 ± 0.0046 | 1.04 ± 0.052 | 1.06 ± 0.022 | 1.09 ± 0.08 | 1.04 ± 0.06 | 1.09 ± 0.04 | 1.02 ± 0.055 | 0.867 ± 0.021 | – | – | – | – | – | – | – | – | –
5 | MG63 BONE | 1.04 ± 0.045 | 1.04 ± 0.046 | 1.09 ± 0.038 | 1.08 ± 0.033 | 1.09 ± 0.039 | 1.12 ± 0.042 | 1.1 ± 0.032 | 1.06 ± 0.044 | 2.52 | 0.809 | 0.972 | 1.43 | 3.47 | 3.11 | 3.57 | – | 3.25
6 | LM7 BONE | 0.979 ± 0.059 | 0.963 ± 0.023 | 1.06 ± 0.05 | 1.1 ± 0.086 | 1.04 ± 0.038 | 1.04 ± 0.023 | 0.944 ± 0.044 | 1.02 ± 0.068 | 2.54 | 0.746 | 0.895 | 0.956 | 3.49 | 2.32 | 3.39 | – | 3.43
7 | MDAMB157 BREAST | 0.92 ± 0.089 | 0.989 ± 0.093 | 0.993 ± 0.048 | 0.967 ± 0.045 | 1 ± 0.16 | 0.991 ± 0.04 | 0.984 ± 0.025 | 0.945 ± 0.07 | 2.36 | 0.654 | 1.4 | 1.53 | 3.2 | 2.98 | – | – | 3.21
8 | 143B BONE | 0.999 ± 0.011 | 1.04 ± 0.03 | 1.07 ± 0.057 | 1.05 ± 0.0021 | 1.08 ± 0.052 | 1.14 ± 0.072 | 1.08 ± 0.05 | 1.08 ± 0.033 | 2.93 | 1.1 | – | – | – | – | – | – | 3.53
9 | VP229 BREAST | 1.15 ± 0.15 | 1.21 ± 0.19 | 1.21 ± 0.12 | 1.12 ± 0.13 | 1.15 ± 0.052 | 1.27 ± 0.03 | 1.25 ± 0.076 | 1.4 ± 0.049 | 2.78 | 1.56 | 1.81 | 1.79 | 2.63 | 2.77 | 4.03 | 3.55 | –
10 | SCC003 HEADNECK | 1.07 ± 0.033 | 1.1 ± 0.049 | 1.05 ± 0.034 | 1.06 ± 0.027 | 1.12 ± 0.11 | 1.09 ± 0.049 | 1.13 ± 0.11 | 1.08 ± 0.067 | 2.69 | 1.13 | 1.77 | 1.38 | 2.89 | 3.08 | 3.59 | – | 3.56
11 | CADOES1 SOFT TISSUE | 0.792 ± 0.11 | 0.925 ± 0.091 | 0.807 ± 0.17 | 0.984 ± 0.052 | 0.973 ± 0.043 | 0.942 ± 0.024 | 0.888 ± 0.045 | 0.827 ± 0.097 | 2.12 | 1.87 | 0.642 | 3.1 | 3.02 | 3.12 | 2.95 | – | 2.79
12 | ASKA SYNOVIAL | 1.16 ± 0.098 | 1.15 ± 0.074 | 1.2 ± 0.05 | 1.19 ± 0.048 | 1.19 ± 0.12 | 1.21 ± 0.064 | 1.15 ± 0.073 | 1.12 ± 0.039 | 2.15 | 0.983 | 0.904 | 1.57 | 3.71 | 3.41 | 3.87 | 3.72 | –
13 | CCK81 LARGE INTESTINE | 0.841 ± 0.1 | 0.867 ± 0.052 | 0.744 ± 0.14 | 0.819 ± 0.059 | 0.774 ± 0.094 | 0.732 ± 0.099 | 0.735 ± 0.089 | 0.813 ± 0.077 | – | – | 1.63 | 2.51 | 1.85 | 2.3 | 2.59 | 2.67 | –
14 | MFM223 BREAST | 1.41 ± 0.52 | 1.3 ± 0.2 | 1.29 ± 0.26 | 1.33 ± 0.34 | 1.1 ± 0.034 | 1.09 ± 0.1 | 1.05 ± 0.11 | 1.03 ± 0.017 | 2.67 | 0.825 | 1.92 | 0.996 | 3.88 | 2.94 | – | 3.74 | –
15 | SUM159 BREAST | 1.07 ± 0.032 | 1.1 ± 0.031 | 1.09 ± 0.032 | 1.08 ± 0.048 | 1.08 ± 0.014 | 1.1 ± 0.024 | 1.07 ± 0.021 | 1.09 ± 0.017 | 2.79 | 1.29 | 1.29 | 1.25 | 3.52 | 3.15 | 3.58 | – | 3.03
16 | HMT3552 BREAST | 1.07 ± 0.057 | 1.07 ± 0.07 | 1.09 ± 0.026 | 1.11 ± 0.038 | 1.16 ± 0.019 | 1.18 ± 0.062 | 1.19 ± 0.078 | 1.27 ± 0.041 | – | – | 1.48 | 1.94 | 3.14 | 3.17 | 3.77 | – | –
17 | HS578T BREAST | 0.9 ± 0.013 | 0.892 ± 0.26 | 0.942 ± 0.14 | 0.942 ± 0.093 | 0.923 ± 0.12 | 1.11 ± 0.17 | 0.961 ± 0.083 | 0.969 ± 0.1 | 2.72 | 0.471 | 1.81 | 2.61 | 3.1 | 3.11 | 3.16 | – | 3.49
18 | BT20 BREAST | 1.14 ± 0.085 | 1.1 ± 0.035 | 1.08 ± 0.059 | 1.19 ± 0.077 | 1.11 ± 0.072 | 1.22 ± 0.061 | 1.23 ± 0.059 | 1.07 ± 0.047 | 2.05 | 0.614 | 0.907 | 0.651 | 3.62 | 2.91 | 3.78 | – | –
19 | SG28 HEADNECK | 1.19 ± 0.26 | 1.19 ± 0.04 | 1.24 ± 0.099 | 1.2 ± 0.13 | 1.2 ± 0.18 | 1.233 ± 0.0057 | 1.16 ± 0.027 | 1.29 ± 0.059 | 2.96 | 2.04 | – | – | – | – | – | – | 3.43
